The target in the assay is T. gondii ME49Luc in IFN-y HeLa, luciferase, 72 h. In words: T. gondii growth inhibition with IFN-gamma, dose response, cell-based, ME49Luc, HeLa, luciferase, 72 h (AID 1259418).

“And” between values parts separate entries of the source, which are not always exact repeats. Equal entries are not always repeated. Inconclusive results are not listed. The source made the active and inactive calls.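 How the source made its calls: active means fitted half-maximal concentration of signal decrease at or below twice the sample's top tested concentration; inconclusive means flat curve between -70 and -30 percent, or poor fit; inactive means flat within 30 percent, signal rise, or potency above limit.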 Starred links: 1 amine or outer side, 2 acyl side, 3 side chain; linkers in the order of their positions; H or OH if unused. Positions of bridges follow the written chain, without caps; N, C: chain ends. Non-standard residues stand in square brackets, D forms with d. Residues, ends and D or L forms follow the SMILES beside them. ξ: configuration not given here. *: point of attachment. pTerphenylCO(4''-OnC5H11) = CCCCCOc1ccc(-c2ccc(-c3ccc(C(=O)*)cc3)cc2)cc1; ξOrn(4,5-diOH) = O=C(C(CC(O)C(O)N[*:3])N[*:1])[*:2]; ξhTyr(βξ-OH,γξ-OH) = NC(C(=O)O)C(O)C(O)c1ccc(O)cc1; ξPro(3ξ-OH,4ξ-Me) = CC1CNC(C(=O)O)C1O; Hyp = O=C(O)[CH]1C[CH](O)CN1

From PubChem BioAssay AID1259418 (Broad Institute, 2018) come the findings set out here.

Turning to `O=C(CC1N=C2c3ccccc3N=C(SCc3ccccc3Cl)N2C1=O)NCc1cccs1` (stereo unspecified), the concentration at half-maximal activity (AC50) (usually the midpoint of the concentration-response curve, whichever way the signal moves) was 21.5 µM. With `O=C(C1CCCCC1)N1C[C@@H]2N[C@H](C1)C2c1ccc(-c2ccccc2F)cc1` (stereo partly specified), the AC50 is 16.7 µM. With `CCCCN(C)C(=O)c1cnc(-c2noc3cc(NCC4CC4)ccc23)s1`, the AC50 was 6.44 µM and 21.7 µM. `Cc1ccc(-c2coc(-c3ccc(NS(=O)(=O)c4ccc(CC(C)C)cc4)cc3)n2)c(C)c1`: the AC50 was > 39 µM (inactive).

Regarding `Cc1nc(OCC(=O)Nc2cccc(F)c2)c2ccccc2n1`, the AC50 is 28.8 µM. For `CC(C)Cc1ccc(S(=O)(=O)N2CCC3(CC2)NCCN=C3NCc2cccc(F)c2)cc1`, the AC50 was 5.25 µM. In the case of `O=C(COc1ccc(F)cc1)N1CCC2(CC1)Nc1ccc(Cl)cc1-n1cccc12` it was 17 µM.

In the case of `COc1ccc(-c2nc(NCCCN3CCN(c4ccccc4)CC3)c3ccccc3n2)cc1`, the AC50 was 29.8 µM. `COc1ccc(-c2nc(N3CCC4(CC3)OCCO4)c3ccccc3n2)cc1`: the AC50 was 20.1 µM.

Take `COc1cccc(CN2CCCCN3[C@@H](CO)[C@@H](c4ccc(-c5ccccc5OC)cc4)[C@@H]3C2)c1`: the AC50 was 16.4 µM and 13.4 µM.

For the compound `COc1ccc(-c2nc(NCCCN3CCC(N4CCCCC4)CC3)c3ccccc3n2)cc1`, the half-maximal activity concentration (AC50) was 31.3 µM. Consider `COc1ccc(N(Cc2nc(-c3ccc(OC)c(OC)c3)oc2C)S(=O)(=O)c2ccccc2)cc1`, for which the AC50 is 9.25 µM. On to `COc1cccc(-c2nc3c(s2)CN(S(=O)(=O)c2ccccc2C)CC3)c1`, for which the AC50 is 6.95 µM and 17.2 µM. In the case of `COC(=O)C[C@H]1CC[C@@H]2[C@@H](COc3ccc(NC(=O)Nc4cccc(C#N)c4)cc3C(=O)N2C)O1` it was 27.5 µM and 18.5 µM. In the case of `CC[C@H]1CN2CCC1C[C@@H]2[C@@H](O)c1ccnc2ccc(OC)cc12` (stereo partly specified) it was 2.25 µM; in that of `CCCNC(=O)N1C[C@@H]2N[C@H](C1)C2c1ccc(-c2ccccc2C)cc1` (stereo partly specified), 18.1 µM; in that of `O=C(CC1N=C2c3ccccc3N=C(SCc3ccc(Cl)cc3)N2C1=O)NCc1cccs1` (stereo unspecified), 29.4 µM.

Consider `CCOC(=O)CSC1=Nc2ccccc2C2=NC(CCC(=O)NCc3ccc(OC)cc3)C(=O)N12` (stereo unspecified), for which the AC50 is 27.8 µM. Take `Cc1cc(C)c(S(=O)(=O)N2CCC3(CC2)NCCN=C3NCc2ccc3c(c2)OCO3)cc1C`: the AC50 was 9.23 µM. Regarding `COc1ccc(N(Cc2nc(-c3ccc(C)cc3)oc2C)S(=O)(=O)c2ccc(C)cc2)cc1`, the AC50 is 13.2 µM. Regarding `N#C[C@H]1[C@H](c2ccc(-c3cccc(F)c3)cc2)[C@H](CO)N1C(=O)NC1CCCC1`, the AC50 is 18.9 µM. For `CCc1c(C)sc2c1CCN(Cc1nc(-c3ccc(OC(C)C)cc3)oc1C)C2c1ccccc1` (stereo unspecified), the AC50 was > 39 µM (inactive).

Consider `Cc1ccc(S(=O)(=O)Nc2ccc3c(c2)C(=O)N([C@H](C)CO)C[C@H](C)[C@H](CN(C)Cc2ccc(C(F)(F)F)cc2)O3)cc1`, for which the AC50 was 13.1 µM. Turning to `COc1ccc(-c2nc(CN(c3ccccc3)S(=O)(=O)c3cccs3)c(C)o2)cc1OC`, the AC50 is 6.84 µM. Take `CO[C@@H]1[C@@H](OC(N)=O)[C@@H](O)[C@H](Oc2ccc3c(O)c(NC(=O)c4ccc(O)c(CC=C(C)C)c4)c(=O)oc3c2C)OC1(C)C`: the AC50 was 22.2 µM. As to `CCc1cnc(N2[C@H](C#N)[C@H](c3ccc(C#Cc4ccccc4F)cc3)[C@@H]2CO)s1`, the AC50 is 19.4 µM.

As to `C[C@H](CO)N1C[C@H](C)[C@H](CN(C)Cc2ccc(Cl)c(Cl)c2)Oc2c(NS(=O)(=O)c3ccc(F)cc3)cccc2C1=O`, the AC50 was 20.9 µM. In the case of `Cc1ccc(Cn2c(=O)c3nn(C)cc3n3c(=O)n(Cc4nc(-c5ccccc5)oc4C)nc23)cc1` it was 13.1 µM; in that of `C[C@H](CO)N1C[C@H](C)[C@H](CN(C)C(=O)c2cc(Cl)cc(Cl)c2)OCc2ccccc2-c2c(n(C)c3ccccc23)C1=O`, 9.22 µM; in that of `COc1cccc(NC(=O)N2CCN(Cc3nc(-c4ccc(C)cc4)oc3C)CC2)c1`, 22 µM.

Take `COc1ccccc1CN1CC[C@@H]2[C@H]1c1cc(-c3cccc(C(=O)N(C)C)c3)ccc1N[C@@H]2CO`: the AC50 is 19.6 µM. In the case of `CCc1cnc(N2[C@@H](C#N)[C@@H](c3ccc(C4=CCCCC4)cc3)[C@@H]2CO)s1` it was > 20 µM (inactive) and 8.88 µM; in that of `Cc1cccc(NC(=O)c2cc(-c3cnc(N4CCOCC4)nc3)cn2CC2CC2)c1`, 22.2 µM.

For the compound `COc1cccc(NC(=O)N2CCc3nc(-c4ccc(C)cc4)sc3C2)c1`, the AC50 is 26.8 µM. As to `COc1ccc2c(c1)NC1(CCN(C(=O)C3CCCCC3)CC1)c1cccn1-2`, the AC50 was > 39 µM (inactive). Turning to `Cc1ccc(S(=O)(=O)N2CCC3(CC2)NCCN=C3NCc2ccccc2Cl)cc1C`, the AC50 was 12.2 µM. The figure for `CCCNc1nc(-c2ccccc2Cl)nc2ccccc12` is 23.9 µM; for `Cc1ccccc1-c1ccc(C2[C@@H]3CN(C(=O)c4ccc(F)cc4)C[C@H]2N3)cc1` (stereo partly specified) it is 19 µM; for `NC(N)=N/N=C/c1c(Cl)cccc1Cl` it is 19.7 µM. On to `Fc1ccc(CSc2nc(NCc3ccc(Cl)cc3)c3ccccc3n2)cc1`, for which the AC50 was 16 µM. As for `COc1cccc(C#Cc2ccc([C@@H]3[C@H](C#N)N(C(=O)c4ccccn4)[C@H]3CO)cc2)c1`, the AC50 is 20.7 µM. With `Cc1nc(-c2cc(S(=O)(=O)NCCCN3CCCC(C)C3)c(C)s2)sc1C` (stereo unspecified), the AC50 was 33.7 µM.

Take `COc1ccc(-c2nc(NCCN3CCCCC3C)c3ccccc3n2)cc1` (stereo unspecified): the AC50 was 13.4 µM. As to `Cc1ccc(N(Cc2nc(-c3ccccc3)oc2C)S(=O)(=O)c2cccs2)cc1`, the AC50 is 3.53 µM. In the case of `CCN1C(=O)CCc2cc(NC(=O)Cc3cccc(OC)c3)ccc21`, the AC50 is 23 µM. For `O=C(CC1N=C2c3ccccc3N=C(SCc3ccc(F)cc3)N2C1=O)NCc1cccs1` (stereo unspecified), the AC50 is 35 µM.

`Cc1cccc(N2CCN(C(=O)CC3Nc4c5ccccc5nc(=S)n4C3=O)CC2)c1C` (stereo unspecified): the AC50 was 26.9 µM. The figure for `COc1ccc(-c2nc3c(s2)CN(S(=O)(=O)c2ccc(C)c(C)c2)CC3)cc1` is 20.7 µM; for `COc1ccccc1C(=O)N1CCC2(CC1)Nc1ccc(Cl)cc1-n1cccc12` it is 33.9 µM.

Regarding `COc1ccc(S(=O)(=O)N2CCCCN3[C@H](CO)[C@H](c4ccc(C#CCC(C)C)cc4)[C@H]3C2)cc1`, the AC50 is 5.52 µM. In the case of `COc1ccccc1CNC(=O)CC1N=C2c3ccccc3N=C(SCc3ccccc3Cl)N2C1=O` (stereo unspecified) it was 20.4 µM.

In the case of `Cc1nc(OCC(=O)Nc2c(C)cccc2C)c2ccccc2n1`, the AC50 is 28.8 µM. For the compound `O=C(Cc1ccncc1)N1CCCCN2[C@@H](CO)[C@@H](c3ccc(C#Cc4ccccc4F)cc3)[C@@H]2C1`, the AC50 is 20.9 µM and 12.3 µM. In the case of `CCOc1ccc(N(Cc2nc(-c3ccc(OC)cc3)oc2C)S(=O)(=O)c2ccccc2)cc1`, the half-maximal activity concentration (AC50) is 3.96 µM and 3.81 µM. The figure for `O=C(NC1CCCC1)N1CCCCN2[C@H](CO)[C@@H](c3ccc(-c4cccnc4)cc3)[C@H]2C1` is > 39 µM (inactive); for `Cc1ccccc1S(=O)(=O)N1CCC(C(=O)NCCc2csc(-c3ccccc3)n2)CC1` it is 25.6 µM; for `CCCCCOc1ccc(-c2ccc(-c3ccc(C(=O)NC4CC(O)C(O)NC(=O)C5C(O)C(C)CN5C(=O)C(C(C)O)NC(=O)C(C(O)C(O)c5ccc(O)cc5)NC(=O)C5CC(O)CN5C(=O)C(C(C)O)NC4=O)cc3)cc2)cc1` (stereo not drawn) ({pTerphenylCO(4''-OnC5H11)}-[ξOrn(4,5-diOH)]T[Hyp][ξhTyr(βξ-OH,γξ-OH)]T[ξPro(3ξ-OH,4ξ-Me)]; lactam 1-C; configuration not given here) it is 25 µM.

Consider `COCC(=O)N1[C@H](C#N)[C@H](c2ccc(C#CCC3CCCC3)cc2)[C@@H]1CO`, for which the half-maximal activity concentration (AC50) is 29.6 µM and 27.8 µM.

With `COCCN(C)C(=O)c1cc(-c2ccn(-c3ccc(OC)cc3)n2)n2ccccc12`, the AC50 is 22.3 µM. As for `Cc1cc2nc(CN3CCCC(CCc4ccc(F)cc4F)C3)cc(=O)n2[nH]1` (stereo unspecified), the AC50 is > 20 µM (inactive). In the case of `CCOc1ccc(N(Cc2nc(-c3ccc(C)cc3)oc2C)S(=O)(=O)c2cccs2)cc1` it was 5.31 µM; in that of `c1ccc(-c2noc(-c3ccc(N4CCC(N5CCCCC5)CC4)nc3)n2)cc1`, 18.6 µM.

`CN1c2ccc(-c3ccccc3)cc2[C@@H]2[C@@H](CCN2C(=O)CC2CC2)[C@@H]1CO`: the AC50 is 18.5 µM and > 39 µM (inactive). As to `Cc1ccccc1-c1ccc([C@H]2[C@H](CO)N3CCCCN(S(=O)(=O)Cc4ccccc4)C[C@@H]23)cc1`, the AC50 was 16.5 µM. As for `CCC(=O)N1CC[C@@H]2[C@H]1c1cc(C#Cc3ccccc3F)ccc1N[C@@H]2CO`, the concentration at half-maximal activity (AC50) was 29.2 µM. For `Cc1cc(C2CCCN2Cc2cn(C(C)C)c3ccccc23)no1` (stereo unspecified), the AC50 is 35.1 µM.

Regarding `COc1ccccc1N(Cc1nc(-c2cccc(C)c2)oc1C)S(=O)(=O)c1ccccc1`, the concentration at half-maximal activity (AC50) is 13.3 µM. Consider `Cc1ccc(C(=O)N2CCC3(CC2)Nc2ccc(Cl)cc2-n2cccc23)cc1F`, for which the AC50 is > 39 µM (inactive). `COc1ccc(-c2nc(Nc3ccc(OC)cc3OC)c3ccccc3n2)cc1`: the AC50 is 13.3 µM.

For `Cc1cc(C(=O)N2CCC(c3cc4c(ncn4C)c(NCC4CC4)n3)CC2)ccc1Cl`, the AC50 is 23.1 µM. For the compound `Cc1ccc(S(=O)(=O)N2CCC3(CC2)NCCN=C3NC2CCCCCC2)c(C)c1`, the concentration at half-maximal activity (AC50) was 14.2 µM. Take `COc1ccc(Cc2cnc(N)nc2N)cc1OC`: the AC50 is 23.2 µM. For `O=C(CCC1N=C2c3ccccc3N=C(SCc3cc(=O)n4cc(Cl)ccc4n3)N2C1=O)NCc1cccs1` (stereo unspecified), the AC50 was 32 µM. On to `Cc1ccc(N(Cc2nc(-c3cccc(Cl)c3)oc2C)S(=O)(=O)c2cccs2)cc1`, for which the concentration at half-maximal activity (AC50) was 5.3 µM and 7.96 µM.

Take `Cc1cccc(C(=O)Nc2c(C(=O)N3CCN(c4ccccn4)CC3)[nH]c3ccccc23)c1`: the AC50 is > 39 µM (inactive). As for `COc1cccc(S(=O)(=O)N2CCCCN3[C@H](CO)[C@@H](c4ccc(C#CCC(C)C)cc4)[C@@H]3C2)c1`, the AC50 was 5.58 µM and 10.4 µM and 10.5 µM. In the case of `COc1ccc(CNC(=O)CC2N=C3c4ccccc4N=C(SCc4ccc(F)cc4)N3C2=O)cc1` (stereo unspecified), the AC50 is 22.6 µM.

`CCN(CC)c1nc(-c2ccc(OC)cc2)nc2ccccc12`: the AC50 is 15.7 µM.

Consider `COc1cccc(NC(=O)COc2nc(C)nc3ccccc23)c1`, for which the AC50 is 36.7 µM.

For `N#C[C@@H]1[C@H](c2ccc(-c3cccc(F)c3)cc2)[C@@H](CO)N1C(=O)NC1CCCC1`, the AC50 was 20.4 µM. The figure for `O=C(CCn1cnc2cc(-c3noc(-c4cc5cc(Cl)ccc5[nH]4)n3)ccc21)N1CCCC1` is 23.7 µM.
